Data taken from patent US7504400B2, “MTP inhibiting aryl piperydines or piperazines substituted with 5-membered heterocycles” (Janssen Pharmaceutica N.V., priority 2004, dated 2009).

System: Secretion of ApoB
Assay: Quantification of the secretion of ApoB in HepG2 cells
Assay type: cell-based
Conditions: Homo sapiens, HepG2, 24 h, 24 hours of incubation with test compound, immunoprecipitation of apoB from medium, read-out: pIC50 value (=-log IC50 value), secretion of ApoB (converted)
How it was run: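 At 70% confluency, HepG2 cells in MEM with 10% FCS received compound or DMSO carrier (0.4% final) for 24 h. Secreted apoB in cleared medium immunoprecipitated with sheep anti-apoB then rabbit anti-sheep antibody (24 h each, 8° C); pellet radioactivity counted by liquid scintillation; IC50 expressed as pIC50.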

| SMILES | IC50 |
| --- | --- |
| CCOC(=O)C(c1ccccc1)N1CCC(c2ccc(-n3ccn([C@@H](C)c4ccc(Cl)cc4)c3=O)cc2)CC1 (stereo partly drawn) [Compound 236] | 316 to 3160 nM |
| CC(C)n1ncn(-c2ccc(N3CCN(C(C(=O)Nc4ccc5c(c4)nc(-c4ccccc4)n5C)c4ccccc4)CC3)cc2)c1=O (stereo not drawn) [Compound 199] | 316 to 3160 nM |
| CCOC(=O)[C@H](NC(=O)CC1CCN(c2ccc(-n3cnn(C(C)c4ccccc4)c3=O)cc2)CC1)C(C)C (stereo partly drawn) [Compound 393] | 31.6 to 316 nM |
| COC(=O)c1cccc(CNC(=O)C(c2ccccc2)N2CCN(c3ccc(-n4ccn(C(C)c5ccccc5)c4=O)cc3)CC2)c1 (stereo not drawn) [Compound 291] | 316 to 3160 nM |
| CC(C)n1ncn(-c2ccc(C3CCN(C(C(=O)N(C)C)c4ccccc4)CC3)cc2)c1=O (stereo not drawn) [Compound 144] | 316 to 3160 nM |
| CCOC(=O)C(c1ccccc1)C1CCN(c2ccc(-n3ccn([C@@H](C)c4cccc5ccccc45)c3=O)cc2)CC1 (stereo partly drawn) [Compound 246] | 316 to 3160 nM |
| CCOC(=O)c1cc(CNC(=O)C(Cc2ccccc2)C2CCN(c3ccc(-n4cnn(C(C)c5ccccc5)c4=O)cc3)CC2)ccc1C (stereo not drawn) [Compound 383] | 316 to 3160 nM |
| CCOC(=O)C(c1ccccc1)C1CCN(c2ccc(-n3ccn([C@@H](C)c4ccccc4)c3=O)cc2)CC1 (stereo partly drawn) [Compound 248] | 316 to 3160 nM |
| CC(C)n1ncn(-c2ccc(N3CCN(C(C(=O)NCC(F)(F)F)c4ccccc4)CC3)nc2)c1=O (stereo not drawn) [Compound 170] | 316 to 3160 nM |
| CCCNC(=O)C(c1ccccc1)C1CCN(c2ccc(-n3cnn(Cc4ccccc4)c3=O)cc2)CC1 (stereo not drawn) [Compound 155] | 31.6 to 316 nM |
| CCOC(=O)C(c1ccccc1)C1CCN(c2ccc(-n3ccn([C@@H](C)c4ccc(F)cc4)c3=O)cc2)CC1 (stereo partly drawn) [Compound 243] | 316 to 3160 nM |
| CC(C)n1cnn(-c2ccc(N3CCN(C(C(=O)NCc4ccccc4)c4ccccc4)CC3)cc2)c1=O (stereo not drawn) [Compound 123] | 31.6 to 316 nM |
| CCOC(=O)[C@H](c1ccccc1)N1CCN(c2ccc(-n3ccn([C@H](C)c4ccc(C(F)(F)F)cc4)c3=O)cc2)CC1 (relative stereo) [Compound 270] | 31.6 to 316 nM |
| CCCCn1ncn(-c2ccc(N3CCC(C(C(=O)NCc4ccccc4)c4ccccc4)CC3)cc2)c1=O (stereo not drawn) [Compound 156] | 31.6 to 316 nM |
| CCOC(=O)c1ccc(CNC(=O)C(c2ccccc2)C2CCN(c3ccc(-n4cnn(C(C)c5ccccc5)c4=O)cc3)CC2)cc1C (stereo not drawn) [Compound 375] | 31.6 to 316 nM |
| CCOC(=O)CC(NC(=O)C(c1ccccc1)N1CCN(c2ccc(N3CCN(C(C)C)C3=O)cc2)CC1)c1ccc2c(c1)OCO2 (stereo not drawn) [Compound 359] | 316 to 3160 nM |
| CCOC(=O)C(c1ccccc1)N1CCN(c2ccc(-n3ccn(C(C)c4cccc(F)c4F)c3=O)cc2)CC1 (stereo not drawn) [Compound 332] | 31.6 to 316 nM |
| COC(=O)c1[nH]c2ccc(C)cc2c1NC(=O)C(c1ccccc1)N1CCC(c2ccc(-n3cnn(C(C)C)c3=O)cc2)CC1 (stereo not drawn) [Compound 353] | 31.6 to 316 nM |
| CCOC(=O)c1cc(CNC(=O)C(c2ccccc2)C2CCN(c3ccc(-n4cnn(C(C)c5ccccc5)c4=O)cc3)CC2)ccc1C (stereo not drawn) [Compound 381] | < 31.6 nM |
| CCOC(=O)C(c1ccccc1)C1CCN(c2ccc(-n3ccn([C@H](C)c4ccc(F)cc4)c3=O)cc2)CC1 (stereo partly drawn) [Compound 244] | 31.6 to 316 nM |
| Cn1ncn(-c2ccc(N3CCC(C(C(=O)NCc4ccccc4)c4ccccc4)CC3)cc2)c1=O (stereo not drawn) [Compound 167] | 316 to 3160 nM |

| SMILES | IC50 |
| --- | --- |
| COC(=O)C(c1ccc(Cl)cc1Cl)N1CCC(c2ccc(-n3cnn(C(C)C)c3=O)cc2)CC1 (stereo not drawn) [Compound 322] | 31.6 to 316 nM |
| CCCCCn1ncn(-c2ccc(N3CCC(C(C(=O)NCCC)c4ccccc4)CC3)cc2)c1=O (stereo not drawn) [Compound 151] | 31.6 to 316 nM |
| CCOC(=O)C(c1ccccc1)N1CCN(c2ccc(-n3cnn(C(C)C)c3=O)c(C)c2)CC1 (stereo not drawn) [Compound 217] | 31.6 to 316 nM |
| CCOC(=O)[C@@H](c1ccccc1)N1CCN(c2ccc(-n3cnn([C@H](C)c4ccc(F)cc4)c3=O)cc2)CC1 (relative stereo) [Compound 298] | 316 to 3160 nM |
| CC(C)NC(=O)C(c1ccccc1)N1CCC(c2ccc(-n3cnn(C(C)C)c3=O)cc2)CC1 (stereo not drawn) [Compound 140] | 31.6 to 316 nM |
| O=C(Nc1ccc2c(c1)CCC2)C(c1ccccc1)C1CCN(c2ccc(-n3ncn(Cc4ccccc4)c3=O)cc2)CC1 (stereo not drawn) [Compound 212] | < 31.6 nM |
| COC(=O)c1ccc2nc(NC(=O)C(c3ccccc3)N3CCC(c4ccc(-n5cnn(C(C)C)c5=O)cc4)CC3)sc2c1 (stereo not drawn) [Compound 354] | 316 to 3160 nM |
| CCOC(=O)C(c1ccccc1)N1CCN(c2ccc(N3CCN(C(C)C)C3=O)c(C)c2)CC1 (stereo not drawn) [Compound 219] | 316 to 3160 nM |
| CCOC(=O)[C@H](c1ccccc1)N1CCN(c2ccc(-n3ccn(C(C)c4ccc(F)cc4F)c3=O)cc2)CC1 (stereo in doubt) [Compound 339] | 31.6 to 316 nM |
| CCOC(=O)C(c1ccccc1)C1CCN(c2ccc(-n3ccn([C@@H](C)c4cccc(OC)c4)c3=O)cc2)CC1 (stereo partly drawn) [Compound 258] | 316 to 3160 nM |
| CCOC(=O)c1cc(CNC(=O)C(Cc2ccccc2)C2CCN(c3ccc(-n4cnn(C(C)C)c4=O)cc3)CC2)ccc1C (stereo not drawn) [Compound 384] | 316 to 3160 nM |
| CC(C)n1ncn(-c2ccc(N3CCN(C(C(=O)NCc4ccccn4)c4ccccc4)CC3)nc2)c1=O (stereo not drawn) [Compound 45] | 316 to 3160 nM |
| CCOC(=O)c1cc(NC(=O)C(Cc2ccccc2)C2CCN(c3ccc(-n4cnn(C(C)c5ccccc5)c4=O)cc3)CC2)ccc1C (stereo not drawn) [Compound 373] | 316 to 3160 nM |
| CCOC(=O)C(c1ccccc1)N1CCC(c2ccc(-n3ccn([C@H](C)c4ccc5ccccc5c4)c3=O)cc2)CC1 (stereo partly drawn) [Compound 232] | 31.6 to 316 nM |
| CCOC(=O)c1ccc(CNC(=O)CC2CCN(c3ccc(-n4cnn(C(C)C)c4=O)cc3)CC2)cc1C [Compound 378] | 31.6 to 316 nM |
| CCOC(=O)C(c1ccccc1)N1CCC(c2ccc(-n3ccn([C@H](C)c4ccc(C)cc4)c3=O)cc2)CC1 (stereo partly drawn) [Compound 233] | 31.6 to 316 nM |
| COC(=O)C(c1ccc(Cl)cc1Cl)N1CCN(c2ccc(-n3cnn(C(C)C)c3=O)cc2)CC1 (stereo not drawn) [Compound 328] | 31.6 to 316 nM |
| CCOC(=O)C(c1ccccc1)N1CCC(c2ccc(-n3ccn([C@@H](C)c4ccc(Br)cc4)c3=O)cc2)CC1 (stereo partly drawn) [Compound 230] | 316 to 3160 nM |
| CCOC(=O)C(c1ccccc1)N1CCN(c2ccc(-n3nc4cccc(C)n4c3=O)cc2)CC1 (stereo not drawn) [Compound 347] | 316 to 3160 nM |
| C=CCn1ncn(-c2ccc(N3CCC(C(C(=O)Nc4ccccc4)c4ccccc4)CC3)cc2)c1=O (stereo not drawn) [Compound 52] | 316 to 3160 nM |
| CCOC(=O)C(c1ccccc1)C1CCN(c2ccc(-n3ccn([C@H](C)c4ccc5ccccc5c4)c3=O)cc2)CC1 (stereo partly drawn) [Compound 252] | 316 to 3160 nM |

Other lines, results leading:

| IC50 | SMILES |
| --- | --- |
| 316 to 3160 nM | CC(C)n1ncn(-c2ccc(N3CCN(C(C(=O)NCCC#N)c4ccccc4)CC3)cc2)c1=O (stereo not drawn) [Compound 132] |
| 316 to 3160 nM | CC(C)n1ncn(-c2ccc(N3CCN(CC(C(=O)NCCC#N)c4ccccc4)CC3)cc2)c1=O (stereo not drawn) [Compound 102] |
| 316 to 3160 nM | CC(C)n1ncn(-c2ccc(N3CCN(C(C(=O)NCc4ccc(S(C)(=O)=O)cc4)c4ccccc4)CC3)cc2)c1=O (stereo not drawn) [Compound 73] |
| 31.6 to 316 nM | C=CCNC(=O)C(c1ccccc1)N1CCN(c2ccc(-n3cnn(C(C)CC)c3=O)cc2)CC1 (stereo not drawn) [Compound 95] |
| 316 to 3160 nM | COCCNC(=O)C(c1ccccc1)N1CCN(c2ccc(-n3ncn(C(C)C)c3=O)cc2)CC1 (stereo not drawn) [Compound 117] |
| 316 to 3160 nM | COC(=O)C(c1ccc(Cl)cc1)N1CCN(c2ccc(-n3cnn(C(C)C)c3=O)cc2)CC1 (stereo not drawn) [Compound 327] |
| 31.6 to 316 nM | COc1cc(NC(=O)C(c2ccccc2)N2CCN(c3ccc(-n4cnn(C(C)C)c4=O)cc3)CC2)cc(C(F)(F)F)c1 (stereo not drawn) [Compound 64] |
| 316 to 3160 nM | COC(=O)C(c1ccc(C)cc1)N1CCN(c2ccc(-n3cnn(C(C)c4ccccc4)c3=O)cc2)CC1 (stereo not drawn) [Compound 318] |
| 316 to 3160 nM | CCNC(=O)C(c1ccccc1)(c1ccccc1)N1CCN(c2ccc(-n3cnn(C(C)C)c3=O)cc2)CC1 [Compound 133] |
| 31.6 to 316 nM | Cc1ccc(NC(=O)C(c2ccccc2)N2CCN(c3ccc(-n4cnn(C(C)C)c4=O)cc3)CC2)c(C)c1 (stereo not drawn) [Compound 59] |
| 31.6 to 316 nM | CC(C)n1ncn(-c2ccc(N3CCN(C(C(=O)Nc4ccc(Cl)cc4)c4ccccc4)CC3)cc2)c1=O (stereo not drawn) [Compound 55] |
| 31.6 to 316 nM | CC(C)n1ncn(-c2ccc(N3CCN(C(C(=O)NCCNc4ccccc4)c4ccccc4)CC3)cc2)c1=O (stereo not drawn) [Compound 80] |
| 316 to 3160 nM | COC(=O)C(NC(=O)CC1CCN(c2ccc(-n3cnn(C(C)c4ccccc4)c3=O)cc2)CC1)C(C)C (stereo not drawn) [Compound 401] |
| 31.6 to 316 nM | CCC(C)n1ncn(-c2ccc(N3CCN(C(C(=O)N(C)C)c4ccccc4)CC3)cc2)c1=O (stereo not drawn) [Compound 24] |
| 316 to 3160 nM | CC(C)n1ncn(-c2ccc(N3CCN(C(C(=O)NCc4ccco4)c4ccccc4)CC3)cc2)c1=O (stereo not drawn) [Compound 65] |
| 316 to 3160 nM | COC(=O)c1ccc(CNC(=O)C(c2ccccc2)N2CCN(c3ccc(-n4cnn(C(C)C)c4=O)cc3)CC2)cc1 (stereo not drawn) [Compound 196] |
| 316 to 3160 nM | COCCNC(=O)C(c1ccccc1)N1CCN(c2ccc(-n3cnn(C(C)C)c3=O)cn2)CC1 (stereo not drawn) [Compound 4] |
| 316 to 3160 nM | CCCNC(=O)C(c1ccccc1)N1CCN(c2ccc(-n3ncn(C(C)C)c3=O)cc2)CC1 (stereo not drawn) [Compound 114] |
| 31.6 to 316 nM | CCCCCNC(=O)C(c1ccccc1)N1CCN(c2ccc(-n3cnn(C(C)C)c3=O)cn2)CC1 (stereo not drawn) [Compound 44] |
| 31.6 to 316 nM | COc1ccc(CCNC(=O)C(c2ccccc2)N2CCN(c3ccc(-n4cnn(C(C)C)c4=O)cc3)CC2)cc1OC (stereo not drawn) [Compound 82] |
| 316 to 3160 nM | COC(CNC(=O)C(CN1CCN(c2ccc(-n3cnn(C(C)C)c3=O)cc2)CC1)c1ccccc1)OC (stereo not drawn) [Compound 108] |
| 31.6 to 316 nM | CCCNC(=O)C(c1ccccc1)C1CCN(c2ccc(-n3cnn(C(C)C)c3=O)cc2)CC1 (stereo not drawn) [Compound 99] |
| 31.6 to 316 nM | CC(C)n1ncn(-c2ccc(N3CCN(C(C(=O)NCCCc4ccccc4)c4ccccc4)CC3)cc2)c1=O (stereo not drawn) [Compound 85] |
| 316 to 3160 nM | CCOC(=O)[C@@H](NC(=O)CC1CCN(c2ccc(-n3cnn(C(C)c4ccccc4)c3=O)cc2)CC1)C(C)C (stereo partly drawn) [Compound 392] |
